Legend:
[1] = test system: IL-6; experiment: IL-6 secretion measurement by ELISA in LPS-challenged RAW 264.7 cells; type: cell-based
Description: (§1) Raw 264.7 macrophage cell (KCBL, 40071) from Korea Cell Bank was maintained in Dulbecco's modified Eagle's medium (DMEM; PAA, Austria) containing 10% fetal bovine serum (FBS; GIBCO®), 100 unit/mL of streptomycin, and penicillin (Gibco Laboratories) at 37° C. with 5% CO2. Raw 264.7 cells were seeded into a 96-well plate at a density of 1×10^6 cells/mL and incubated overnight.
(§2) On the following day, the medium was replaced with fresh medium and 5 μg/mL of peptide (obtained as described in Experiment example 1) was added to the cells. After 30 min incubation of cells with the peptide 50 μL of LPS (to a final concentration of 1 μg/mL) was added, and cells were incubated for additional 24 hr. The experimental sample with the induction of inflammatory response was treated with 1 μg/mL mL lipopolysaccharide (LPS; SIGMA-ALDRICH®, USA) and control sample was treated with phosphate buffered saline (PBS; pH 7.2). The supernatant samples from each condition was collected in eppendorf tubes and subjected to further analysis.
To investigate the effect of PEP-1 on inhibiting proinflammatory cytokine production RAW 264.7 cell were pre-treated with PEP 1 at a concentration of 5 μg/mL challenged with LPS at a concentration of 1 μg/mL, and cells were further incubated for 24 hr. The supernatant samples containing cell culture medium was collected and analyzed for the cytokine levels using ELISA kits (eBioscience, San Diego).
96 wells plates were coated with 100 μL of capture antibodies (diluted in coating buffer to the concentration recommended by manufacturer's protocol) overnight at 4° C. Then, after washing the plates 5 times, 200 μL of assay diluents was added to each well and incubated for 1 hr at room temperature for blocking. […]
Following incubation with the secondary antibody, the plate was washed five times and incubated with 100 μL of avidin-HRP (BD Bioscience) for 30 min at room temperature. […] The reaction was stopped by adding 50 μl of 2N H2SO4 in each well The optical density at 450 nm was measured using a microplate reader. […]

[2] = test system: HMGB1, TNF-α and COX; experiment: Western blot of pro-inflammatory cytokine expression; type: cell-based; details: cells treated with both LPS and PEP-1
Description: as §1, §2
Protein expression level was determined by Western blot analysis. […] The membrane was incubated with ECL (enhanced chemiluminoesence) solution ([…]®), exposed to X-ray, and the level of protein expression was analyzed according to the exposure level shown on the X-ray film. […]

[3] = test system: cytokines; experiment: qRT-PCR of cytokine levels in THP1 cell line; type: cell-based, human; details: PMA-differentiated THP-1, LPS 10 ng/ml and 4 μM peptide, 4 hr, FIG. 3
Description: As a Human acute monocytic leukemia cell line, THP-1 monocyte cell line ([…] TYPE CULTURE COLLECTION® (Manassas, Va., USA) was used to reconfirm the effects of PEP 1. Cells were grown at a density of 0.5-7×10^5 cells/mL in RPMI 1640 containing 10% FBS, 0.05 mM 2-mercaptoethanol, 100 U/ml penicillin, 100 μg/mL streptomycin, and maintained at 37° C. under 5% CO2. THP-1 cells were differentiated into macrophages by treating cells with phorbol myristate acetate (PMA) at 100 ng/mL for 24 hr at 37° C. for 24 hr.
Following differentiation into macrophages, THP-1 cells were washed two times using complete RPMI 1640 (5 min/wash). Then, cells were treated for 4 hr. with 10 ng/ml LPS and/or 4 μM peptide RIA in FBS free RPMI 1640.
Total RNA samples were isolated from peptide-treated THP-1 cells by using Trizol (QIAZOL®) reagent and, and cDNA was synthesized by reverse transcriptase PCR using reverse transcription PCR kit from PROMEGA CORPORATION® following manufacturer's protocol.
Then, real-Time qPCR was performed using CFX96 (BIO-RAD®) instrument with SYBR® Green qPCR system. Primers used in the experiments are found in Table 5. The PCR cycling conditions were 95° C. for 10 min for activation of HotStart DNA Taq Polymerase, followed by 45 cycles of 95° C. for 10 sec. […] All samples were measured in triplicate and differences in gene expression were calculated using the 2-cycle threshold method. […]

[4] = test system: Ki67, pAKT, PI3K, HSTF-1 and Bcl-2; experiment: Western blot of anti-apoptotic proteins in amyloid-β damaged neural stem cells; type: cell-based, rat; details: 20 μM amyloid beta, PEP-1 1, 10 and 50 μM, FIGS. 15A-15F
[5] = test system: HMGB1; experiment: Western blot of HMGB1 in amyloid-β damaged neural stem cells; type: cell-based, rat; details: after the decrease by amyloid-β treatment, FIG. 15J
From the text: HMGB1, a non-histone structure protein that binds to DNA, serves diverse roles within a cell; such as stabilizing nucleosome structure and regulating gene expression.

[6] = target: T1, amyloid-β protein (Homo sapiens, UniProt P05067); experiment: Amyloid-β aggregation; type: biochemical
T1 construct: co-treated with 1 μM amyloid beta protein and PEP 1 (0.1, 1 and 10 μM)
T1 sequence (P05067 672-713 limits assumed): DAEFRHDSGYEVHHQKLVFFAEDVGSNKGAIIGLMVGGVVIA
From the text: In addition, we investigated the response of PEP-1 to the amyloid-β aggregation.

[7] = RAW 264.7 cells, LPS 1 μg/ml, PEP 1 5 μg/ml, 24 hr

EARPALLTSRLRFIPK [PEP-1]
cytokine IL-6 production % of control [1, 7]: 28%
cytokine IL-6 production inhibition % [1, 7]: 72%
decrease of proinflammatory cytokine secretion (IL-6) ([1]; co-treatment with LPS): more than 70%
decrease of pro-inflammatory cytokine levels [2]: more than 70%
cytokines involved in the inflammatory responses (qRT-PCR) [3]: decreased noticeably
protein expression levels of anti-apoptotic proteins Ki67, pAKT, PI3K, HSTF-1, Bcl-2 [4]: increased the protein expression levels
HMGB1 in the cytoplasm of the nerve cells [5]: increase of HMGB1
aggregation of amyloid-β protein during induction ([6]; 1 μM amyloid beta protein co-treated with PEP 1 0.1, 1 and 10 μM, FIG. 16A): inhibited
amyloid-β protein already induced for aggregation ([6]; FIG. 16B): underwent degradation
